Test results reported in ChEMBL document CHEMBL1667765, “Syntheses, antiproliferative activity and theoretical characterization of acitretin-type retinoids with changes in the lipophilic part” (2011).
Blank lines part the entries; values can stand above or below the molecule they belong to. Active and inactive are the calls of the source. The calls are words filed in the database; no cut-off is given here.

Assays:
MCF7 [1] = assay: Antiproliferative activity against human MCF7 cells expressing estrogen receptor assessed as cell growth inhibition 50 uM after 72 hrs by WST-1 assay relative to control; type: functional
MCF7 [2] = assay: Antiproliferative activity against human MCF7 cells expressing estrogen receptor assessed as cell growth inhibition 5 uM after 72 hrs by WST-1 assay relative to control; type: functional
MCF7 [3] = assay: Antiproliferative activity against human MCF7 cells expressing estrogen receptor after 72 hrs by WST-1 assay; type: functional, cell-based
MCF7 [4] = assay: Induction of apoptosis in human MCF7 cells expressing estrogen receptor assessed as increase of PARP cleavage at 10^-5 M after 4 hrs by Western blotting; type: functional, cell-based
MCF7 [5] = assay: Induction of apoptosis in human MCF7 cells expressing estrogen receptor assessed as increase of PARP cleavage at 10^-5 M after 9 hrs by Western blotting; type: functional, cell-based
[6] = target: RAC-alpha serine/threonine-protein kinase (Homo sapiens) (UniProt P31749); assay: Activation of Akt in human MCF7 cells expressing estrogen receptor at 10^-5 M after 9 hrs by Western blotting; type: functional, cell-based
MCF7 [7] = assay: Antiproliferative activity against human MCF7 cells expressing estrogen receptor at 10 uM after 72 hrs by WST-1 assay; type: functional; conditions: MCF7, 72 h
MCF7 [8] = assay: Cell cycle arrest in human MCF7 cells expressing estrogen receptor at 10^-5 M after 9 to 48 hrs using propidium iodide staining by FACS analysis; type: functional, cell-based
MCF7 [9] = assay: Antiproliferative activity against human MCF7 cells expressing estrogen receptor after 72 hrs by MTT assay; type: functional, cell-based
[10] = target: RAC-alpha serine/threonine-protein kinase (Homo sapiens) (UniProt P31749); assay: Activation of Akt in human MCF7 cells expressing estrogen receptor at 10^-5 M after 4 hrs by Western blotting; type: functional, cell-based

Sequence of RAC-alpha serine/threonine-protein kinase (Homo sapiens) (P31749 whole entry): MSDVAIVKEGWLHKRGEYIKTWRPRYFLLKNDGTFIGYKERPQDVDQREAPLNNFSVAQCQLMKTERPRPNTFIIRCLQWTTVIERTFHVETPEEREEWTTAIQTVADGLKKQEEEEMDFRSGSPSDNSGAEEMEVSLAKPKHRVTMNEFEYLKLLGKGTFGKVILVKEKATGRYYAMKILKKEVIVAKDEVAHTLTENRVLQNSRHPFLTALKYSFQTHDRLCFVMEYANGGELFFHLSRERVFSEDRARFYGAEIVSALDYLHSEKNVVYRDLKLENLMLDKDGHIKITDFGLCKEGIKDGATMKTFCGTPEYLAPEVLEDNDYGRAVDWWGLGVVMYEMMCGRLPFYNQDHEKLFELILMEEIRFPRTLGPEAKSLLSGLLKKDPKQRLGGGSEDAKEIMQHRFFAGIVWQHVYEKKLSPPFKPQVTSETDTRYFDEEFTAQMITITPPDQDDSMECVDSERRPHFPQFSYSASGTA

SMILES: CC(/C=C/c1ccc2ccc3cccc4ccc1c2c34)=C\C=C\C(C)=C\C(=O)O
inhibition (INH) (MCF7 [1]): 4%
inhibition (INH) (MCF7 [2]): 5.2%

SMILES: COc1cc(C)c(/C=C/C(C)=C/C=C/C(C)=C/C(=O)O)c(C)c1C
inhibition (MCF7 [3]): Dose-dependent effect

SMILES: CC(/C=C/c1ccc(N(C)C)cc1)=C\C=C\C(C)=C\C(=O)O
inhibition (INH) (MCF7 [1]): 5%

SMILES: CC(/C=C/c1ccc2ccccc2c1)=C\C=C\C(C)=C\C(=O)O
inhibition (INH) (MCF7 [1]): -25%

SMILES: CC1=C(/C=C/C(C)=C/C=C/C(C)=C/C(=O)O)C(C)(C)CCC1 [TRETINOIN]
inhibition (INH) (MCF7 [1]): 3.1%

SMILES: CN[C@@H]1C[C@H]2O[C@@](C)([C@@H]1OC)n1c3ccccc3c3c4c(c5c6ccccc6n2c5c31)C(=O)NC4
Activity (MCF7 [4]): Active
Activity (MCF7 [5]): Active

SMILES: CC(/C=C/c1ccc(C(F)(F)F)cc1C(F)(F)F)=C\C=C\C(C)=C\C(=O)O
inhibition (INH) (MCF7 [1]): 6%
inhibition (INH) (MCF7 [2]): 13.9%

SMILES: COc1ccc(/C=C/C(C)=C/C=C/C(C)=C/C(=O)O)cc1OC
inhibition (INH) (MCF7 [1]): -30%

SMILES: CC(/C=C/C=C(\C)c1ccc2cc3ccccc3cc2c1)=C\C(=O)O
inhibition (INH) (MCF7 [1]): 15%

Activity [6]: inactive
Activity [10]: inactive
SMILES: COc1cc(OC)c(/C=C/C(C)=C/C=C/C(C)=C/C(=O)O)c(OC)c1
inhibition (MCF7 [3]): Active
inhibition (INH) (MCF7 [1]): -53%
inhibition at 10 µM (MCF7 [7]): 52%
Activity (MCF7 [8]): inactive
Activity (MCF7 [4]): inactive
inhibition (MCF7 [9]): Active
Activity (MCF7 [5]): inactive

SMILES: CC(/C=C/c1cc(F)c(F)cc1F)=C\C=C\C(C)=C\C(=O)O
inhibition (INH) (MCF7 [1]): 10%
inhibition (INH) (MCF7 [2]): 2%

SMILES: COc1ccc2cc(/C(C)=C/C=C/C(C)=C/C(=O)O)ccc2c1
inhibition (INH) (MCF7 [1]): -32%

SMILES: CC(/C=C/C=C(\C)c1ccc2ccc3cccc4ccc1c2c34)=C\C(=O)O
inhibition (INH) (MCF7 [1]): 8%
